Structures can show the parent of a compound that is named as a salt.
Experiments:
[1] = system: thrombin; conditions: Bajusz et al., J. Med. Chem. 33, 1729-1735 (1990); cited from earlier work
[2] = target: T1, activated protein C (aPC) (Homo sapiens, UniProt P04070); assay: Inhibition of activated protein C (aPC), chromogenic substrate; type: biochemical; conditions: statement in words
T1 construct: made in house
Procedure: By substantially following the procedures described above for human thrombin, and using other human blood coagulation system serine proteases and proteases of the fibrinolytic system with the appropriate chromogenic substrates, identified below, selectivity of the compounds of the present invention with respect to the coagulation factor serine proteases and with respect to the fibrinolytic system serine proteases are evaluated as well as their substantial lack of interference with serine proteases of the fibrinolytic system. Thrombin inhibitors preferably should spare fibrinolysis induced by urokinase, tissue plasminogen activator (t-PA) and streptokinase. This would be important to the therapeutic use of such agents as an adjunct to streptokinase, t-PA or urokinase thrombolytic therapy and to the use of such agents as an endogenous fibrinolysis-sparing (with respect to t-PA and urokinase) antithrombotic agent. In addition to the lack of interference with the amidase activity of the fibrinolytic proteases, such fibrinolytic system sparing can be studied by the use of human plasma clots and their lysis by the respective fibrinolytic plasminogen activators.
Human factors X, Xa, IXa, XIa, and XIIa are purchased from Enzyme Research Laboratories, South Bend, Ind.; human urokinase from Leo Pharmaceuticals, Denmark; and recombinant activated Protein C (aPC) is prepared at Eli Lilly and Co. substantially according to U.S. Pat. No. 4,981,952. Chromogenic substrates: N-Benzoyl-Ile-Glu-Gly-Arg-p-nitroanilide (for factor Xa); N-Cbz-D-Arg-Gly-Arg-p-nitroanilide (for factor IXa assay as the factor Xa substrate); Pyroglutamyl-Pro-Arg-p-nitroanilide (for Factor XIa and for aPC); H-D-Pro-Phe-Arg-p-nitroanilide (for factor XIIa); and Pyroglutamyl-Gly-Arg-p-nitroanilide (for urokinase); are purchased from KabiVitrum, Stockholm, Sweden, or from Midwest Biotech, Fishers, Ind.. Bovine trypsin is purchased from Worthington Biochemicals, Freehold, N.J., and human plasma kallikrein from Kabi Vitrum, Stockholm, Sweden. […]

[3] = system: human plasma; assay: Human plasma anticoagulation, thrombin time (TT); type: biochemical; conditions: concentration required to double thrombin time, linear extrapolation
Procedure, shortened: (§1)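 Compound was spiked over a wide concentration range into citrated human plasma, and clotting times were read on a coagulation instrument. PT was started with saline plus Thromboplastin-C. APTT used 120 s preincubation with Actin, then 0.02M CaCl2. TT used saline plus bovine thrombin (10 NIH units/mL). Doubling concentrations were obtained by linear extrapolation.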

[4] = system: human plasma; assay: Human plasma anticoagulation, activated partial thromboplastin time (APTT); type: biochemical; conditions: concentration required to double APTT, linear extrapolation
Procedure, shortened: as §1

[5] = system: human plasma; assay: Human plasma anticoagulation, prothrombin time (PT); type: biochemical; conditions: concentration required to double PT, linear extrapolation
Procedure, shortened: as §1

[6] = early clinical studies, Simoons et al., Circulation 90, I-231 (1994); cited from earlier work
[7] = target: factor Xa (Homo sapiens, UniProt P00742); assay: Kass against factor Xa, chromogenic substrate; type: biochemical; conditions: substrate N-Benzoyl-Ile-Glu-Gly-Arg-p-nitroanilide
Sequence of factor Xa (P00742 235-488 limits assumed): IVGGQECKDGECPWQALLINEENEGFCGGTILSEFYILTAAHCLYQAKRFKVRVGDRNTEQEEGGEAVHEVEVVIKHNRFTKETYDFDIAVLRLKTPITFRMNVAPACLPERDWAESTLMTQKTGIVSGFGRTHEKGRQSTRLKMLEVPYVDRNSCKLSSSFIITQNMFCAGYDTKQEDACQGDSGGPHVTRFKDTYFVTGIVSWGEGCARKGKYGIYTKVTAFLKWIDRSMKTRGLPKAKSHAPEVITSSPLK
Sequence of factor Xa (P00742 41-179 partner limits assumed): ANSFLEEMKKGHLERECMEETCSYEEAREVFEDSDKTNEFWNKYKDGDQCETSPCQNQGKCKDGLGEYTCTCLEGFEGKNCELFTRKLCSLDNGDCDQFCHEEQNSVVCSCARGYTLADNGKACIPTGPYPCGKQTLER

[8] = target: Human Thrombin (Homo sapiens, UniProt P00734); assay: Inhibition of thrombin amidase activity (Kass), chromogenic substrate; type: biochemical; conditions: mean Kass over a range of concentrations; substrate N-benzoyl-Phe-Val-Arg-p-nitroanilide

T1 sequence (P04070 212-450 limits assumed): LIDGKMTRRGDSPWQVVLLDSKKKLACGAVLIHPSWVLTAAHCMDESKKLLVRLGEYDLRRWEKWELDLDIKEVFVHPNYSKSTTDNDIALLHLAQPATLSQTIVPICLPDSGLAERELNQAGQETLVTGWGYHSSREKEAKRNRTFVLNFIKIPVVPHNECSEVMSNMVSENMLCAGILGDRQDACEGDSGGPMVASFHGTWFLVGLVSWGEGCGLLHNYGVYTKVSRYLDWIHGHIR
T1 sequence (P04070 43-197 partner limits assumed): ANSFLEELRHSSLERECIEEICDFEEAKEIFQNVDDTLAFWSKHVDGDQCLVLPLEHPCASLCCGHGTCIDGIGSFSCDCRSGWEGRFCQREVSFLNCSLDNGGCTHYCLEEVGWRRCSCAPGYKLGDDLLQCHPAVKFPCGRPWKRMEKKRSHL

inhibition of activated protein C (aPC) [2] | SMILES | direct inhibition of thrombin [1] | Human Plasma Anticoagulation 2x Clotting time TT [3] | Human Plasma Anticoagulation 2x Clotting time APTT [4] | Human Plasma Anticoagulation 2x Clotting time PT [5] | further results
 | N=C(N)NCCC[C@@H](C=O)NC(=O)[C@@H]1CCCN1C(=O)[C@H](N)Cc1ccccc1 [D-Phe-Pro-Arg-H] | potent direct inhibition |  |  |  | 
very weak inhibition | N=C(N)c1ccc(CNC(=O)[C@@H]2CCCN2C(=O)[C@@H](CC2CCCCC2)NCC(=O)O)nc1 [Example 66, N-(carboxymethyl)-D-cyclohexylalanyl-N-[[5-(aminoiminomethyl)pyridin-2-yl]methyl]-L-prolinamide hydrochloride] |  | 7.9 ng/mL | 180 ng/mL | 270 ng/mL | 
 | CN[C@H](Cc1ccccc1)C(=O)N1CCC[C@H]1C(=O)N[C@H](C=O)CCCNC(=N)N.O=S(=O)(O)O [D-MePhe-Pro-Arg-H sulfate] |  |  |  |  | anticoagulant in man [6]: is an anticoagulant in man
 | CN[C@H](Cc1ccccc1)C(=O)N1CCC[C@H]1C(=O)N[C@H](C=O)CCCNC(=N)N [D-MePhe-Pro-Arg-H] | potent direct inhibition |  |  |  | 
 | CCS(=O)(=O)N[C@H](Cc1ccccc1)C(=O)N1CCC[C@H]1C(=O)NCCc1cccc(N=C(N)N)c1.Cl [Example 37, EtSO2 -D-Phe-Pro-m-NHCH2 CH2 C6 H4 NHC(NH)NH2.HCl] |  | > 9,000 ng/mL | > 9,000 ng/mL | > 9,000 ng/mL | Kass Xa [7]: < 0.009 × 10^6 (L/mole); Kass Human Thrombin [8]: 0.02 × 10^6 (L/mole)
very weak inhibition | Cl.Cl.Cl.N=C(N)c1ccc(CNC(=O)[C@@H]2CCCN2C(=O)[C@@H](CC2CCCCC2)NCC(=O)O)nn1 [Example 69, N-(carboxymethyl)-D-cyclohexylalanyl-N-[[6-(aminoiminomethyl)pyridazin-3-yl]methyl]-L-prolinamide tri-hydrochloride] |  | 5 ng/mL | 110 ng/mL | 220 ng/mL | Kass Human Thrombin [8]: 340 × 10^6 (L/mole)
 | CC(C)(C)OC(=O)N[C@H](Cc1ccccc1)C(=O)N1CCC[C@H]1C(=O)N[C@H](C=O)CCCNC(=N)N [Boc-D-Phe-Pro-Arg-H] | potent direct inhibition |  |  |  | 

SMILES | inhibition of activated protein C (aPC) [2] | direct inhibition of thrombin [1] | Human Plasma Anticoagulation 2x Clotting time TT [3] | Human Plasma Anticoagulation 2x Clotting time APTT [4] | Human Plasma Anticoagulation 2x Clotting time PT [5] | further results
N=C(N)C1=CNC(CNC(=O)[C@@H]2CCCN2C(=O)[C@@H](CC2CCCCC2)NCC(=O)O)CC1 (stereo partly drawn) [Example 68, N-(carboxymethyl)-D-cyclohexylalanyl-N-[[5-(aminoiminomethyl)-1,2,3,4-tetrahydropyridin-2-yl]methyl]L-prolinamide hydrochloride] | very weak inhibition |  | 4 ng/mL | 49 ng/mL | 190 ng/mL | 

— US5710130A, “Antithrombotic agents” (Eli Lilly and Company, priority 1995, dated 1998)
